Test results as given in US6358978B1, “Substituted benzimidazoles” (Aventis Pharma Deutschland GmbH, priority 1999, dated 2002).
Where a name gives a salt, the structure may show the parent alone.

Experiments:
[1] = target: T1, IκB kinase (Homo sapiens, UniProt O14920+O15111); assay: IκB kinase filter test; assay type: biochemical; settings: kinase purified from HeLa cell extracts; 50 μM ATP; substrate peptide 20 μM
T1 construct: The kinase was purified from HeLa cell extracts; endogenous in cells; host or cells: HeLa cell extracts

[2] = target: T2, cAMP-dependent protein kinase (PKA) (Homo sapiens, UniProt P17612); assay: PKA kinase test (Upstate Biotechnology kit); assay type: biochemical; settings: substance concentration of 100 μM; ATP 50 μM
T2 construct: purchased Upstate Biotechnology
Experimental: (§1) cAMP-dependent protein kinase (PKA), protein kinase C (PKC), and casein kinase II (CK II) were determined using the appropriate test kits of Upstate Biotechnology according to the procedure of the manufacturer at an ATP concentration of 50 μM. Differently, no phosphocellulose filter, but MultiScreen plates (Millipore; phosphocellulose MS-PH, cat. MAPHNOB10) with the corresponding aspiration system were used. The plates or membranes (IκB kinase) were then measured in a Wallac Microβeta scintillation counter. 100 μM of the test substance were employed in each case.
(§2) Each substance was tested in a duplicate determination. The mean value of the blank (without enzyme) is subtracted from the mean values (enzyme with and without substances) and the % inhibition is calculated. IC50 calculations were carried out using the software package GraFit 3.0.

[3] = tested on: protein kinase C (PKC); assay: PKC kinase test (Upstate Biotechnology kit); assay type: biochemical; settings: substance concentration of 100 μM; ATP 50 μM
Experimental: as §1, §2

[4] = target: T3, casein kinase II (CK II) (Homo sapiens, UniProt P68400); assay: CK II kinase test (Upstate Biotechnology kit); assay type: biochemical; settings: substance concentration of 100 μM; ATP 50 μM
T3 construct: purchased Upstate Biotechnology
Experimental: as §1, §2

T3 sequence (P68400 whole entry): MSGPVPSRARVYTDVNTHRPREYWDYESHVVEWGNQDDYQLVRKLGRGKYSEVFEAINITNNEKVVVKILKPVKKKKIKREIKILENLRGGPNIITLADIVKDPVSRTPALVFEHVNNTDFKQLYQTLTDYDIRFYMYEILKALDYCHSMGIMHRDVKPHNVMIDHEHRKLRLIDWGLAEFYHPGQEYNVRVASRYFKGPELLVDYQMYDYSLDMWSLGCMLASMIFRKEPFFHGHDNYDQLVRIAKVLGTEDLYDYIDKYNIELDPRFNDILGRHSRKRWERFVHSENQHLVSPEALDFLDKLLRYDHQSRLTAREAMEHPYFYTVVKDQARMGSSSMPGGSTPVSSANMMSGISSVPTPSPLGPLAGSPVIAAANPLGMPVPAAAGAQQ
T3 sequence (P67870 whole entry partner): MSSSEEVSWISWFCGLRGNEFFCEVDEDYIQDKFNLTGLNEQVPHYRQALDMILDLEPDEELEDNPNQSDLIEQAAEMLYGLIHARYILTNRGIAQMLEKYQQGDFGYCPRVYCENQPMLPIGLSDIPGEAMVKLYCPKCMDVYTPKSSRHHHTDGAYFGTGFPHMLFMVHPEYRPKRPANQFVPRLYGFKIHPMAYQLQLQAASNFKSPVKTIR
T1 sequence (O14920 whole entry): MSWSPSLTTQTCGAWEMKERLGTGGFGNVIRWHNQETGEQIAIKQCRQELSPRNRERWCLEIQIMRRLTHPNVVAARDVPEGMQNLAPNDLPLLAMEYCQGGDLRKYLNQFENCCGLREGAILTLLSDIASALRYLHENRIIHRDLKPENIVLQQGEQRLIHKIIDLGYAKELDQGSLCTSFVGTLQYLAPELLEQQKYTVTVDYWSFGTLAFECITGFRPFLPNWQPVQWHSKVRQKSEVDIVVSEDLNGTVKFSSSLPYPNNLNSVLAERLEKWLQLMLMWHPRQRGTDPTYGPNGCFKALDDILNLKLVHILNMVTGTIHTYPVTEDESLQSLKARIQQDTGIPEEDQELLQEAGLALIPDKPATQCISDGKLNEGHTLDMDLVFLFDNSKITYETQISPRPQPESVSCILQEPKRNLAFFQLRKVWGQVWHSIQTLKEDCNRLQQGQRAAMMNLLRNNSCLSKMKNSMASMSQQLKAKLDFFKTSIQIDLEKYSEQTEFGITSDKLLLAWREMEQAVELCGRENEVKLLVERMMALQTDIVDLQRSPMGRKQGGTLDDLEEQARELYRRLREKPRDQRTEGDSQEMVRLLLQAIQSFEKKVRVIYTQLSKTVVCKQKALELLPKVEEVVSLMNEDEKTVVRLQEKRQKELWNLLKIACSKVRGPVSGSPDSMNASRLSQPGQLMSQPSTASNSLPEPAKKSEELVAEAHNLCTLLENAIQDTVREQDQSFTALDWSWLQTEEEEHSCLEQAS
T1 sequence (O15111 whole entry): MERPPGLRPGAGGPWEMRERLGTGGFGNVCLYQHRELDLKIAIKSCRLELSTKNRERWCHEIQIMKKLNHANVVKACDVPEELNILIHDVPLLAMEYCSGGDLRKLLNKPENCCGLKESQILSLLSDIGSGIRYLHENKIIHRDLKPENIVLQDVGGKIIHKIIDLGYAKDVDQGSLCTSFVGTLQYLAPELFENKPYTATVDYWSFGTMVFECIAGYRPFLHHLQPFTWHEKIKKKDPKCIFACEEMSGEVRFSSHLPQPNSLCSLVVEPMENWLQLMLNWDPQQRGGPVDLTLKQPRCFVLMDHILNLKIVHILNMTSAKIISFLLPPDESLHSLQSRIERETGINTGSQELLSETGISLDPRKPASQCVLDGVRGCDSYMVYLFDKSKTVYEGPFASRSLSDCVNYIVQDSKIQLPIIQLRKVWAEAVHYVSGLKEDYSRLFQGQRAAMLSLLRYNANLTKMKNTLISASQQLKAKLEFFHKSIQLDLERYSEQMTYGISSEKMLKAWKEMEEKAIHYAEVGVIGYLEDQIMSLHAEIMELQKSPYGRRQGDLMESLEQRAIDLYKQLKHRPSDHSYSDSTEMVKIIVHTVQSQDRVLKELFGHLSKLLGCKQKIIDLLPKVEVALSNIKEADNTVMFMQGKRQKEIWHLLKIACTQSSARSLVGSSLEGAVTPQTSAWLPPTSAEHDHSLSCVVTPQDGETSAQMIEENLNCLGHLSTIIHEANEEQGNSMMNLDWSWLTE
T1 sequence (Q9Y6K9 whole entry partner): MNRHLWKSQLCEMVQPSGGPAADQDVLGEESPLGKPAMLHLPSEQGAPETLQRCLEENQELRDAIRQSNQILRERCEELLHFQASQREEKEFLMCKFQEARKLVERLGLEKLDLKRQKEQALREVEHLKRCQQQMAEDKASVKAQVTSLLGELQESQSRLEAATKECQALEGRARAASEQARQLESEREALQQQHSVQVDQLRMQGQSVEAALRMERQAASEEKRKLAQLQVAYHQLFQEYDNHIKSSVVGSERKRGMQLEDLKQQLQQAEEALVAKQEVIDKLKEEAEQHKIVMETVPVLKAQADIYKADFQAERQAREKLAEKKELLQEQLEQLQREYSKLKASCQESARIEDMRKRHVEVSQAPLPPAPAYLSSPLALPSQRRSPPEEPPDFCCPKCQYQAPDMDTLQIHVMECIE

| Structure (SMILES) | IC50 [1] [µM] | melting point | inhibition at 100 µM [2] [%] | PKC % inhibition [3] [%] | inhibition at 100 µM [4] [%] |
| --- | --- | --- | --- | --- | --- |
| NC(=O)[C@H](Cc1cccs1)NC(=O)c1ccc2nc(-c3ccncc3)[nH]c2c1 [Example 11] | 7 |  | 0 | 16 | 0 |
| NC(=O)[C@H](Cc1cccnc1)NC(=O)c1ccc2nc(-c3ccncc3)[nH]c2c1 [Example 12] | 42 |  | 0 | 16 | 0 |
| NC(=O)[C@H](Cc1cccc(C(F)(F)F)c1)NC(=O)c1ccc2nc(-c3ccncc3)[nH]c2c1 [Example 8] | 4 |  | 0 | 9 | 7 |
| NC(=O)[C@H](Cc1cc(Br)c(O)c(Br)c1)NC(=O)c1ccc2nc(-c3ccncc3)[nH]c2c1 [Example 20] | 34 |  | 26 | 31 | 60 |
| NC(=O)[C@H](Cc1ccc2ccccc2n1)NC(=O)c1ccc2nc(-c3ccncc3)[nH]c2c1 [Example 19] | 1 |  | 36 | 63 | 70 |
| NC(=O)[C@H](Cc1cccs1)NC(=O)c1cccc2nc(-c3ccncc3)[nH]c12 [Example 34] | 16 |  |  |  |  |
| NC(=O)[C@H](CC1CC1)NC(=O)c1cccc2nc(-c3ccncc3)[nH]c12 [Example 36] | 36 |  |  |  |  |
| NC(=O)[C@H](Cc1ccc(C(=O)O)cc1)NC(=O)c1ccc2nc(-c3ccncc3)[nH]c2c1 [Example 14] | 7 |  | 0 | 0 | 0 |
| N#Cc1ccc(C[C@H](NC(=O)c2ccc3nc(-c4ccncc4)[nH]c3c2)C(N)=O)cc1 [Example 16] | 9 |  | 0 | 11 | 4 |
| O=C(N[C@@H](CCc1ccccc1)c1nnc(NS(=O)(=O)c2ccccc2)o1)c1ccc2[nH]c(-c3ccncc3)nc2c1 [Example 191] | 0.12 | 220 °C (dec.) |  |  |  |

Next, values leading:

| IC50 [1] [µM] | melting point | inhibition at 100 µM [2] [%] | PKC % inhibition [3] [%] | inhibition at 100 µM [4] [%] | Structure (SMILES) |
| --- | --- | --- | --- | --- | --- |
| 0.43 | 160 °C (dec.) |  |  |  | Nc1nnc([C@H](CCc2ccccc2)NC(=O)c2ccc3[nH]c(-c4ccncc4)nc3c2)o1 [Example 179, 2-pyridin4-yl-1H-benzimidazole-5-carboxylic acid [1-(5-amino-[1,3,4]oxadiazol-2-yl)-3-phenylpropyl]amide] |
| 0.36 |  |  |  |  | CNC(=O)Nc1nnc([C@H](CCc2ccccc2)NC(=O)c2ccc3[nH]c(-c4ccncc4)nc3c2)o1 [Example 192, 2-pyridin-4-yl-1H-benzimidazole-5-carboxylic acid {1-[5-(3-methylureido)-[1,3,4]oxadiazol-2-yl]-3-phenylpropyl}amide] |
| 25 |  | 0 | 16 | 19 | O=C(N[C@@H](Cc1ccc(F)cc1F)C(=O)O)c1ccc2nc(-c3ccncc3)[nH]c2c1 [Example 5] |
| 72 |  | 0 | 46 | 14 | O=C(N[C@H](Cc1ccc(Cl)cc1)C(=O)O)c1ccc2nc(-c3ccncc3)[nH]c2c1 [Example 6] |
| 25 |  | 24 | 7 | 17 | CC(C)(C)c1ccccc1SC[C@H](NC(=O)c1ccc2[nH]c(-c3ccncc3)nc2c1)C(=O)O [Example 112] |
| 0.62 | 103 °C (dec.) |  |  |  | O=C(N[C@@H](CCc1ccccc1)c1nnco1)c1ccc2[nH]c(-c3ccncc3)nc2c1 [Example 180, 2-pyridin-4-yl-1H-benzimidazole-5-carboxylic acid (1-[1,3,4]oxadiazol-2-yl-3-phenylpropyl)amide] |
| 22 |  | 0 | 15 | 10 | O=C(N[C@@H](Cc1ccc(F)cc1)C(=O)O)c1ccc2nc(-c3ccncc3)[nH]c2c1 [Example 7] |
|  | ~ 258 °C (dec.) |  |  |  | CCN(C[C@H](NC(=O)c1ccc2[nH]c(-c3ccncc3)nc2c1)C(=O)O)c1ccccc1 (as salt: trifluoroacetate) [Example 195, 3-Phenylaminoethyl-2-[(2-pyridin-4-yl-1H-benzimidazole-5-carbonyl)-amino]propionic acid trifluoroacetate] |
| 1 |  | 0 | 13 | 92 | CSCC[C@H](NC(=O)c1ccc2[nH]c(-c3ccncc3)nc2c1)C(N)=O [Example 107] |
